Calls of active or inactive are those of the source. The rule behind the calls is not given here. Bridge positions count the residues as written; N and C are the ends. Square brackets hold non-standard residues; d marks the D form. Peptide text beside a SMILES is read from it. S5 = C=CCCC[C@](C)(N)C(=O)O
Legend:
[1] = tested on: NCI-H358; assay: Induction of apoptosis in human NCI-H358 cells harboring KRAS G12C mutant assessed as increase in bax protein level at 40 uM incubated for 24 hrs by Western blot analysis; format: functional, cell-based
[2] = tested on: NCI-H358; assay: Antiproliferative activity against human NCI-H358 cells harboring KRAS G12C mutant incubated for 24 hrs by MTT assay; format: functional, cell-based
[3] = tested on: NCI-H358; assay: Induction of cell cycle arrest in human NCI-H358 cells harboring KRAS G12C mutant assessed as reduction in CDK1 protein expression at 40 uM incubated for 24 hrs by Western blot analysis; format: functional, cell-based
[4] = tested on: NCI-H358; assay: Induction of apoptosis in human NCI-H358 cells harboring KRAS G12C mutant assessed as necrotic cells at 2.5 uM incubated for 24 hrs by Annexin V-FITC/PI staining based flow cytometric analysis (reference value: 0.28%); format: functional
[5] = tested on: GTPase KRas (Homo sapiens), P01116 [G12C]; assay: Binding affinity to biotinylated N-terminal His6-tagged recombinant KRAS G12C mutant (unknown origin) assessed as association constant by BLI method
[6] = tested on: NCI-H358; assay: Induction of apoptosis in human NCI-H358 cells harboring KRAS G12C mutant assessed as late apoptotic cells at 10 uM incubated for 24 hrs by Annexin V-FITC/PI staining based flow cytometric analysis (reference value: 28.2%); format: functional
[7] = tested on: GTPase KRas (Homo sapiens), P01116 [G12C]; assay: Inhibition of mant-GDP bound N-terminal His6-tagged recombinant KRAS G12C mutant (unknown origin) by fluorescence based assay
[8] = tested on: NCI-H358; assay: Induction of apoptosis in human NCI-H358 cells harboring KRAS G12C mutant assessed as viable cells at 10 uM incubated for 24 hrs by Annexin V-FITC/PI staining based flow cytometric analysis (reference value: 67.2%); format: functional; settings: NCI-H358, 24 h, read-out: Activity
[9] = tested on: A549; assay: Induction of apoptosis in human A549 cells harboring KRAS G12S mutant assessed as early apoptotic cells at 20 uM incubated for 24 hrs by Annexin V-FITC/PI staining based flow cytometric analysis (reference value: 6.09%); format: functional
[10] = tested on: NCI-H358; assay: Induction of apoptosis in human NCI-H358 cells harboring KRAS G12C mutant assessed as decrease in bcl2 protein level at 40 uM incubated for 24 hrs by Western blot analysis; format: functional, cell-based
[11] = tested on: NCI-H358; assay: Induction of apoptosis in human NCI-H358 cells harboring KRAS G12C mutant assessed as viable cells at 2.5 uM incubated for 24 hrs by Annexin V-FITC/PI staining based flow cytometric analysis (reference value: 67.2%); format: functional; settings: NCI-H358, 24 h, read-out: Activity
[12] = tested on: A549; assay: Induction of apoptosis in human A549 cells harboring KRAS G12S mutant assessed as late apoptotic cells at 10 uM incubated for 24 hrs by Annexin V-FITC/PI staining based flow cytometric analysis (reference value: 25.4%); format: functional
[13] = tested on: NCI-H358; assay: Induction of apoptosis in human NCI-H358 cells harboring KRAS G12C mutant assessed as late apoptotic cells at 20 uM incubated for 24 hrs by Annexin V-FITC/PI staining based flow cytometric analysis (reference value: 28.2%); format: functional
[14] = tested on: A549; assay: Antiproliferative activity against human A549 cells harboring KRAS G12S mutant at 0.37 to 10 uM incubated for 24 hrs by MTT assay; format: functional, cell-based
[15] = tested on: NCI-H358; assay: Induction of apoptosis in human NCI-H358 cells harboring KRAS G12C mutant assessed as increase in caspase3 protein level at 40 uM incubated for 24 hrs by Western blot analysis; format: functional, cell-based
[16] = tested on: NCI-H358; assay: Induction of apoptosis in human NCI-H358 cells harboring KRAS G12C mutant assessed as late apoptotic cells at 2.5 uM incubated for 24 hrs by Annexin V-FITC/PI staining based flow cytometric analysis (reference value: 28.2%); format: functional
[17] = tested on: A549; assay: Induction of apoptosis in human A549 cells harboring KRAS G12S mutant assessed as decrease in bcl2 protein level at 40 uM incubated for 24 hrs by Western blot analysis; format: functional, cell-based
[18] = tested on: A549; assay: Induction of apoptosis in human A549 cells harboring KRAS G12S mutant assessed as late apoptotic cells at 20 uM incubated for 24 hrs by Annexin V-FITC/PI staining based flow cytometric analysis (reference value: 25.4%); format: functional
[19] = tested on: A549; assay: Induction of apoptosis in human A549 cells harboring KRAS G12S mutant assessed as early apoptotic cells at 2.5 uM incubated for 24 hrs by Annexin V-FITC/PI staining based flow cytometric analysis (reference value: 6.09%); format: functional
[20] = tested on: A549; assay: Induction of apoptosis in human A549 cells harboring KRAS G12S mutant assessed as late apoptotic cells at 2.5 uM incubated for 24 hrs by Annexin V-FITC/PI staining based flow cytometric analysis (reference value: 25.4%); format: functional
[21] = tested on: NCI-H358; assay: Induction of apoptosis in human NCI-H358 cells harboring KRAS G12C mutant incubated for 24 hrs by Annexin V-FITC/PI staining based flow cytometric analysis; format: functional, cell-based
[22] = tested on: NCI-H358; assay: Induction of cell cycle arrest in human NCI-H358 cells harboring KRAS G12C mutant assessed as accumulation at G2/M phase incubated for 24 hrs by PI staining based flow cytometric analysis; format: functional
[23] = tested on: A549; assay: Induction of apoptosis in human A549 cells harboring KRAS G12S mutant assessed as increase in caspase3 protein level at 40 uM incubated for 24 hrs by Western blot analysis; format: functional, cell-based
[24] = tested on: A549; assay: Induction of apoptosis in human A549 cells harboring KRAS G12S mutant assessed as necrotic cells at 2.5 uM incubated for 24 hrs by Annexin V-FITC/PI staining based flow cytometric analysis (reference value: 0.16%); format: functional
[25] = tested on: GTPase KRas (Homo sapiens), P01116 [G12C]; assay: Binding affinity to biotinylated N-terminal His6-tagged recombinant KRAS G12C mutant (unknown origin) assessed as dissociation constant by BLI method
[26] = tested on: A549; assay: Induction of cell cycle arrest in human A549 cells harboring KRAS G12S mutant assessed as as reduction in cyclin B1 protein expression at 40 uM incubated for 24 hrs by Western blot analysis; format: functional, cell-based
[27] = tested on: NCI-H358; assay: Induction of apoptosis in human NCI-H358 cells harboring KRAS G12C mutant assessed as viable cells at 20 uM incubated for 24 hrs by Annexin V-FITC/PI staining based flow cytometric analysis (reference value: 67.2%); format: functional; settings: NCI-H358, 24 h, read-out: Activity
[28] = tested on: NCI-H358; assay: Induction of apoptosis in human NCI-H358 cells harboring KRAS G12C mutant assessed as necrotic cells at 20 uM incubated for 24 hrs by Annexin V-FITC/PI staining based flow cytometric analysis (reference value: 0.28%); format: functional
[29] = molecular target: GTPase KRas (Homo sapiens, UniProt P01116, G12C); assay: Binding affinity to biotinylated N-terminal His6-tagged recombinant KRAS G12C mutant (unknown origin) by BLI method
[30] = tested on: A549; assay: Induction of apoptosis in human A549 cells harboring KRAS G12S mutant assessed as necrotic cells at 10 uM incubated for 24 hrs by Annexin V-FITC/PI staining based flow cytometric analysis (reference value: 0.16%); format: functional
[31] = tested on: A549; assay: Induction of apoptosis in human A549 cells harboring KRAS G12S mutant assessed as viable cells at 2.5 uM incubated for 24 hrs by Annexin V-FITC/PI staining based flow cytometric analysis (reference value: 68.3%); format: functional; settings: A549, 24 h, read-out: Activity

Chain of GTPase KRas (Homo sapiens), P01116 [G12C] (P01116 whole entry G12C): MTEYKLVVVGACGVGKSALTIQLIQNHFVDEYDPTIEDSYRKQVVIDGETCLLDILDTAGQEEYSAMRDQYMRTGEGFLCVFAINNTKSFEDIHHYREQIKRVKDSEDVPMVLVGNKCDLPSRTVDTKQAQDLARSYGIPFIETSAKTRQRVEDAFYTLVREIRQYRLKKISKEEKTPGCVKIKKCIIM
Chain of GTPase KRas (P01116 whole entry G12C): as above

Ka [5]: 7.3 ×10³ /M.s
inhibition [7]: Dose-dependent effect
Kdiss [25]: 6.37 ×10⁻³ /s
Kd [29]: 870 nM
SMILES: CC[C@H](C)[C@H](NC(=O)CNC(=O)[C@H](Cc1ccccc1)NC(=O)[C@H](Cc1ccccc1)NC(=O)[C@H](CCCNC(=N)N)NC(=O)[C@H](CCCNC(=N)N)NC(C)=O)C(=O)N[C@@]1(C)CCC/C=C\CCC[C@@](C)(C(=O)N[C@@H](CC(C)C)C(=O)N[C@@H](CCCCN)C(=O)N[C@H](C(=O)N[C@@H](CCC(=O)O)C(=O)N[C@@H](CCC(=O)O)C(=O)NCC(=O)N[C@@H](CC(N)=O)C(=O)O)[C@@H](C)O)NC(=O)[C@H](CC(N)=O)NC(=O)[C@H](CC(=O)O)NC(=O)[C@H]([C@@H](C)O)NC(=O)[C@H](CC(C)C)NC(=O)[C@H](CC(=O)O)NC1=O (Ac-RRFFGI[S5]DLTDN[S5]LKTEEGN-OH; staple (Z) 7-13)
Activity [1]: Active
Activity [2]: Dose-dependent effect
Activity [3]: Active
Activity [4]: 0.14%
Activity [6]: 40.8%
viability at 10 µM [8]: 52.5%
Activity [9]: 1.68%
Activity [10]: Active
viability at 2.5 µM [11]: 62.7%
Activity [12]: 30.1%
Activity [13]: 46.6%
Activity [14]: inactive
Activity [15]: Active
Activity [16]: 33%
Activity [17]: inactive
Activity [18]: 30.7%
Activity [19]: 2.65%
Activity [20]: 38.5%
Activity [21]: Dose-dependent effect
Activity [22]: Dose-dependent effect
Activity [23]: inactive
Activity [24]: 0.4%
Activity [26]: inactive
viability at 20 µM [27]: 46.7%
Activity [28]: 0.21%
Activity [30]: 0.5%
viability at 2.5 µM [31]: 60.4%
